Laboratory results reported in PubChem BioAssay AID1963426 (Molecular Pharmacology Branch, DTP, NCI, 2024).

System: 186277-243-T-J2-PDC complex spheroid growth, % test/control
Assay: Anticancer human tumor 186277-243-T-J2-PDC patient-derived colon adenocarcinoma cell line growth inhibition [Asc]
Details: for IC50: curve of first compound; for viability, T/C: stronger effect = lower value
In short: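 Tumor cells were grown as multicellular spheroids with stromal HUVEC and mesenchymal stem cells and treated singly or in combination. Concentrations fell in half-log steps from the clinical Cmax, or from 10 microM where none was known.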

[1] = second compound 0.03 µM, first compound 0.00316 µM
[2] = second compound 0.03 µM, first compound 0.01 µM
[3] = second compound 0.03 µM, first compound 0.0316 µM
[4] = second compound 0.03 µM, first compound 0.1 µM
[5] = second compound 0.0949 µM, first compound 0.00316 µM
[6] = second compound 0.0949 µM, first compound 0.01 µM
[7] = second compound 0.0949 µM, first compound 0.0316 µM
[8] = second compound 0.0949 µM, first compound 0.1 µM
[9] = second compound 0.3 µM, first compound 0.00316 µM
[10] = second compound 0.3 µM, first compound 0.01 µM
[11] = second compound 0.3 µM, first compound 0.0316 µM
[12] = second compound 0.3 µM, first compound 0.1 µM
[13] = second compound 0.949 µM, first compound 0.00316 µM
[14] = second compound 0.949 µM, first compound 0.01 µM
[15] = second compound 0.949 µM, first compound 0.0316 µM
[16] = second compound 0.949 µM, first compound 0.1 µM
[17] = second compound 3 µM, first compound 0.00316 µM
[18] = second compound 3 µM, first compound 0.01 µM
[19] = second compound 3 µM, first compound 0.0316 µM
[20] = second compound 3 µM, first compound 0.1 µM
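Further: spheroids exposed to agents for 7 days.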
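Wherever viability, T/C is given: 100% = DMSO vehicle control wells.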

CCN1C(C(=O)NC23CCC(C(=O)O)(CC2)CC3)C(c2cccc(Cl)c2F)C2(C(=O)Nc3cc(Cl)ccc32)C12CCCCC2 (stereo not given) + Cc1c(S(C)(=O)=O)c(-c2cc(F)cc(N3CCN(c4ccc(NS(=O)(=O)c5ccc(NC(CCN6CCC(C(=O)OCCCP(=O)(O)O)CC6)CSc6ccccc6)c(S(=O)(=O)C(F)(F)F)c5)cc4)CC3)c2)c(-c2ccc(Cl)cc2)n1C(C)C
IC50 (second compound 0.1 µM): 746 nM | IC50 (second compound 0.316 µM): 397 nM | IC50 (second compound 1 µM): 202 nM | IC50 (second compound 3.16 µM): 110 nM | IC50 (second compound 10 µM): 97.5 nM | viability, T/C (second compound 0.1 µM, first compound 0.00949 µM): 103% | viability, T/C (second compound 0.1 µM, first compound 0.03 µM): 137% | viability, T/C (second compound 0.1 µM, first compound 0.0949 µM): 91.4% | viability, T/C (second compound 0.1 µM, first compound 0.3 µM): 73.6% | viability, T/C (second compound 0.1 µM, first compound 0.949 µM): 47.5% | viability, T/C (second compound 0.1 µM, first compound 3 µM): 14% | viability, T/C (second compound 0.316 µM, first compound 0.00949 µM): 111% | viability, T/C (second compound 0.316 µM, first compound 0.03 µM): 121% | viability, T/C (second compound 0.316 µM, first compound 0.0949 µM): 82.6% | viability, T/C (second compound 0.316 µM, first compound 0.3 µM): 59.3% | viability, T/C (second compound 0.316 µM, first compound 0.949 µM): 26.1% | viability, T/C (second compound 0.316 µM, first compound 3 µM): 1.1% | viability, T/C (second compound 1 µM, first compound 0.00949 µM): 107% | viability, T/C (second compound 1 µM, first compound 0.03 µM): 126% | viability, T/C (second compound 1 µM, first compound 0.0949 µM): 72.7% | viability, T/C (second compound 1 µM, first compound 0.3 µM): 38.3% | viability, T/C (second compound 1 µM, first compound 0.949 µM): 8.6% | viability, T/C (second compound 1 µM, first compound 3 µM): 1.06% | viability, T/C (second compound 3.16 µM, first compound 0.00949 µM): 120% | viability, T/C (second compound 3.16 µM, first compound 0.03 µM): 103% | viability, T/C (second compound 3.16 µM, first compound 0.0949 µM): 52.5% | viability, T/C (second compound 3.16 µM, first compound 0.3 µM): 19.8% | viability, T/C (second compound 3.16 µM, first compound 0.949 µM): 2.56% | viability, T/C (second compound 3.16 µM, first compound 3 µM): 0.36% | viability, T/C (second compound 10 µM, first compound 0.00949 µM): 107% | viability, T/C (second compound 10 µM, first compound 0.03 µM): 110% | viability, T/C (second compound 10 µM, first compound 0.0949 µM): 49.7% | viability, T/C (second compound 10 µM, first compound 0.3 µM): 13.4% | viability, T/C (second compound 10 µM, first compound 0.949 µM): 3.44% | viability, T/C (second compound 10 µM, first compound 3 µM): 0.38%

O=C(c1ccc(F)c(F)c1Nc1ccc(I)cc1F)N1CC(O)([C@@H]2CCCCN2)C1 + CCN1C(C(=O)NC23CCC(C(=O)O)(CC2)CC3)C(c2cccc(Cl)c2F)C2(C(=O)Nc3cc(Cl)ccc32)C12CCCCC2
IC50 (second compound 0.03 µM): 72.8 nM | IC50 (second compound 0.0949 µM): 54.1 nM | IC50 (second compound 0.3 µM): 14.1 nM | IC50 (second compound 0.949 µM): 4.49 nM | IC50 (second compound 3 µM): < 3.16 nM | viability, T/C [1]: 119% | viability, T/C [2]: 105% | viability, T/C [3]: 96.8% | viability, T/C [4]: 32.2% | viability, T/C (second compound 0.03 µM, first compound 0.316 µM): 6.54% | viability, T/C (second compound 0.03 µM, first compound 1 µM): 3.48% | viability, T/C [5]: 90% | viability, T/C [6]: 96% | viability, T/C [7]: 75.8% | viability, T/C [8]: 20% | viability, T/C (second compound 0.0949 µM, first compound 0.316 µM): 3.92% | viability, T/C (second compound 0.0949 µM, first compound 1 µM): 1.51% | viability, T/C [9]: 66.6% | viability, T/C [10]: 61.9% | viability, T/C [11]: 22.6% | viability, T/C [12]: 5.9% | viability, T/C (second compound 0.3 µM, first compound 0.316 µM): 1.93% | viability, T/C (second compound 0.3 µM, first compound 1 µM): 1.43% | viability, T/C [13]: 52.2% | viability, T/C [14]: 45% | viability, T/C [15]: 19% | viability, T/C [16]: 5.17% | viability, T/C (second compound 0.949 µM, first compound 0.316 µM): 4.44% | viability, T/C (second compound 0.949 µM, first compound 1 µM): 2.55% | viability, T/C [17]: 31.5% | viability, T/C [18]: 26.7% | viability, T/C [19]: 11.9% | viability, T/C [20]: 4.93% | viability, T/C (second compound 3 µM, first compound 0.316 µM): 3.83% | viability, T/C (second compound 3 µM, first compound 1 µM): 3.31%

NC1CCC(NC2CC2c2ccccc2)CC1 (stereo not given) + CCN1C(C(=O)NC23CCC(C(=O)O)(CC2)CC3)C(c2cccc(Cl)c2F)C2(C(=O)Nc3cc(Cl)ccc32)C12CCCCC2
IC50 (second compound 0.03 µM): > 100 nM | IC50 (second compound 0.0949 µM): > 100 nM | IC50 (second compound 0.3 µM): > 100 nM | IC50 (second compound 0.949 µM): > 100 nM | IC50 (second compound 3 µM): < 0.316 nM | viability, T/C (second compound 0.03 µM, first compound 0.000316 µM): 111% | viability, T/C (second compound 0.03 µM, first compound 0.001 µM): 138% | viability, T/C [1]: 112% | viability, T/C [2]: 106% | viability, T/C [3]: 123% | viability, T/C [4]: 113% | viability, T/C (second compound 0.0949 µM, first compound 0.000316 µM): 114% | viability, T/C (second compound 0.0949 µM, first compound 0.001 µM): 132% | viability, T/C [5]: 134% | viability, T/C [6]: 131% | viability, T/C [7]: 131% | viability, T/C [8]: 141% | viability, T/C (second compound 0.3 µM, first compound 0.000316 µM): 93.4% | viability, T/C (second compound 0.3 µM, first compound 0.001 µM): 97.8% | viability, T/C [9]: 94.9% | viability, T/C [10]: 93.3% | viability, T/C [11]: 92.9% | viability, T/C [12]: 91.3% | viability, T/C (second compound 0.949 µM, first compound 0.000316 µM): 66.3% | viability, T/C (second compound 0.949 µM, first compound 0.001 µM): 69.2% | viability, T/C [13]: 66.1% | viability, T/C [14]: 65.8% | viability, T/C [15]: 67.9% | viability, T/C [16]: 65.7% | viability, T/C (second compound 3 µM, first compound 0.000316 µM): 42.1% | viability, T/C (second compound 3 µM, first compound 0.001 µM): 43.6% | viability, T/C [17]: 44.1% | viability, T/C [18]: 39.5% | viability, T/C [19]: 41.4% | viability, T/C [20]: 42.8%
